Assays:
[1] = target: T1, Alpha-1A adrenergic receptor (Rattus norvegicus, UniProt P43140); assay: In vitro functional activity at Alpha-1A adrenergic receptor in rat vas deferens; format: tissue-based; details: read-out: pA2 (converted)
T1 sequence (P43140 whole entry): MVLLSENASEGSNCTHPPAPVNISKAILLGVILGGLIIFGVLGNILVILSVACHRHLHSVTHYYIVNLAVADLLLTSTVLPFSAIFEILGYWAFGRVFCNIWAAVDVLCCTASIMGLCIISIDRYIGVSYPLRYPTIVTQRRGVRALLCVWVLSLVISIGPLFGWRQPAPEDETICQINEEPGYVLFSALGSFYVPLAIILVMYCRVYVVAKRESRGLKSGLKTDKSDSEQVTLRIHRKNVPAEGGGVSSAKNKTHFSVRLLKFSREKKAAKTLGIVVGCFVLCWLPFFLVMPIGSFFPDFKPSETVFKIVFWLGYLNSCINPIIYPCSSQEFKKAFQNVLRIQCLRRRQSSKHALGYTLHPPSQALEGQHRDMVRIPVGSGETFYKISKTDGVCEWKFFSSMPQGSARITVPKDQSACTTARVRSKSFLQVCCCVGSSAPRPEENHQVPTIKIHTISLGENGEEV

[2] = target: T2, Alpha-1B adrenergic receptor (Rattus norvegicus, UniProt P15823); assay: In vitro functional activity at Alpha-1B adrenergic receptor in rat spleen; format: tissue-based; details: read-out: pA2 (converted)
T2 sequence (P15823 whole entry): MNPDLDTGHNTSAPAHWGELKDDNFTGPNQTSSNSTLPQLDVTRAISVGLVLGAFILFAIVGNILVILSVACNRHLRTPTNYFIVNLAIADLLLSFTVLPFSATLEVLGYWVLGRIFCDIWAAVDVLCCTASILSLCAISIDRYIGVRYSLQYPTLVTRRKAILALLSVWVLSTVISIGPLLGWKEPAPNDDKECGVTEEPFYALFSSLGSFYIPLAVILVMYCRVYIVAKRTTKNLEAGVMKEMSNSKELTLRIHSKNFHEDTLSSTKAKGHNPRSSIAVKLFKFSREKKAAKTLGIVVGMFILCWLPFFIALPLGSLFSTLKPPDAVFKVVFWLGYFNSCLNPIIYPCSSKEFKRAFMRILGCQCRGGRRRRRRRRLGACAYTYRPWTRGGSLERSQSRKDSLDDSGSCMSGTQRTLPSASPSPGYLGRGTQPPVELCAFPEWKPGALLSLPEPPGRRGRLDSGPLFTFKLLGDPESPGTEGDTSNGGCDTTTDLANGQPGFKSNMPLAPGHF

[3] = target: T3, Alpha-1D adrenergic receptor (Rattus norvegicus, UniProt P23944); assay: In vitro functional activity at Alpha-1D adrenergic receptor in rat aorta; format: tissue-based; details: read-out: pA2 (converted)
T3 sequence (P23944 whole entry): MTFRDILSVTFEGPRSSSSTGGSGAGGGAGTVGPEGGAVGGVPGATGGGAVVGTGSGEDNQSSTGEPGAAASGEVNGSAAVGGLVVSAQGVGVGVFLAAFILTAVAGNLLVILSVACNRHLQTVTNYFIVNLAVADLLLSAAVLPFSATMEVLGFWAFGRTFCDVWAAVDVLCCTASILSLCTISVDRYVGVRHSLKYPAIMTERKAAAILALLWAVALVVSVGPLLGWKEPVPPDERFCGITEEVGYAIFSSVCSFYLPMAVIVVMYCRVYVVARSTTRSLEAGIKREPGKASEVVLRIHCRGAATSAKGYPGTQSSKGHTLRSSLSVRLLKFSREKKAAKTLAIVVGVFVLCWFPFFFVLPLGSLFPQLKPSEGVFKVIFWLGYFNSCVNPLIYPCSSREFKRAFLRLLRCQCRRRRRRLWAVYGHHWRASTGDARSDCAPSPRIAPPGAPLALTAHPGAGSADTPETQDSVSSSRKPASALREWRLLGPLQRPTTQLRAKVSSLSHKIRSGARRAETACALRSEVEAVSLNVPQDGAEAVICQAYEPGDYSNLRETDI

[4] = target: T1, Alpha-1A adrenergic receptor; assay: Binding affinity towards rat Alpha-1A adrenergic receptor
[5] = target: T3, Alpha-1D adrenergic receptor; assay: Binding affinity towards rat Alpha-1D adrenergic receptor
[6] = target: T4, Alpha-1D adrenergic receptor (Homo sapiens, UniProt P25100); assay: Binding affinity towards human Alpha-1D adrenergic receptor
T4 sequence (P25100 whole entry): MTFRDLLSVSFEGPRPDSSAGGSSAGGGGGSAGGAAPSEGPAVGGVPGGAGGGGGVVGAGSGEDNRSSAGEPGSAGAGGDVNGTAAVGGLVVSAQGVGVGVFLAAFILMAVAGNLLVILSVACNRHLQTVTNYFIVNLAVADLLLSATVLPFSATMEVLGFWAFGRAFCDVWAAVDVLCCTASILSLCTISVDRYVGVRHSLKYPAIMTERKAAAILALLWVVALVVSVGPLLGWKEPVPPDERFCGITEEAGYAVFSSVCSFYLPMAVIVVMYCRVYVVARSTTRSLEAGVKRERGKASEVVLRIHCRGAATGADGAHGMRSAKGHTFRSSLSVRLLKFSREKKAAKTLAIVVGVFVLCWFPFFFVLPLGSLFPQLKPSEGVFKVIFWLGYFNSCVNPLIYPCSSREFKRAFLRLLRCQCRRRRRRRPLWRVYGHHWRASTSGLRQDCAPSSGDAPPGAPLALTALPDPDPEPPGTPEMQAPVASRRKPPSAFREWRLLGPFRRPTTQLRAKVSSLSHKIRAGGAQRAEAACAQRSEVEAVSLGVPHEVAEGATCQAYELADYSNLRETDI

[7] = target: Serotonin 1 (5-HT1) receptor (Rattus norvegicus, UniProt P28564+P30940+P19327+P28565); assay: Ancillary Binding affinity towards rat 5-hydroxytryptamine 1 receptor; format: protein assay
D(1A) dopamine receptor = D(1A) dopamine receptor (Rattus norvegicus, UniProt P18901); assay: Ancillary Binding affinity to rat Dopamine receptor D1
[8] = target: T3, Alpha-1D adrenergic receptor; assay: In vitro functional activity at Alpha-1D receptor in rat aorta; format: tissue-based; details: read-out: pA2 (converted)

D(1A) dopamine receptor, sequence (P18901 whole entry): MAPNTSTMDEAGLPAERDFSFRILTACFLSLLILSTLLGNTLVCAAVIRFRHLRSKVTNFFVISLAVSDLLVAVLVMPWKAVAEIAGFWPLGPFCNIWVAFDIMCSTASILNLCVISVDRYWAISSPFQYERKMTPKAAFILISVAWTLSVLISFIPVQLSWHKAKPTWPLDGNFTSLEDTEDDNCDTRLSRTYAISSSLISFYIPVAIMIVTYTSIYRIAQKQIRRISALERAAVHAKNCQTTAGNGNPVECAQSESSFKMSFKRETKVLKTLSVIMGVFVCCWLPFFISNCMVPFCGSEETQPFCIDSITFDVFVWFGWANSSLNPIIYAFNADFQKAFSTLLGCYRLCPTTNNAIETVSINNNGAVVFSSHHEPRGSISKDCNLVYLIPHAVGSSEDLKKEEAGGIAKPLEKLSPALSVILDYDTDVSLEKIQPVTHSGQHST

Structure (SMILES) | Kb [1] | Kb [2] | Kb [3] | Ki [4] | Ki [5] | Ki [6] | Ki [7] | Ki (D(1A) dopamine receptor) | Kb [8]
COc1ccccc1N1CCN(CCn2c(=O)[nH]c3scc(-c4ccccc4)c3c2=O)CC1 [A-119637] | 8.51 nM | 2.04 nM | 0.0251 nM | 2.43 nM | 0.213 nM | 0.252 nM | 5.49 µM | 6.09 µM | 
COc1ccccc1N1CCN(CCn2c(=O)[nH]c3scc(-c4cccc(C)c4)c3c2=O)CC1 [A-123189] | 4.37 nM | 1.74 nM |  | 3.47 nM | 0.17 nM | 0.312 nM | 12.3 µM | 12.3 µM | 0.02 nM

From ChEMBL document CHEMBL1134245, “Two novel and potent 3-[(o-methoxyphenyl)piperazinylethyl]-5-phenylthien” (Bioorg Med Chem Lett, 2001)
